Experimental data as given in patent publication US5847160A, “Acetylenes disubstituted with 2-tetrahydropyranoxy-aryl and aryl of heteroaryl groups having retinoid-like biological activity” (Allergan, priority 1997, dated 1998).

Tests used:
[1] = test system: ornithine decarboxylase (ODC); conditions: general knowledge; cited from earlier work
[2] = test system: ornithine decarboxylase (ODC); assay: ODC assay: inhibition of TPA induction of ODC activity; format: in vivo; conditions: TPA-induced ODC
From the text: The retinoic acid-like activity of these compounds is confirmed through the classic measure of retinoic acid activity involving the effects of retlnoic acid on ornithine decarboxylase. The original work on the correlation between retinoic acid and decrease in cell proliferation was done by Verma & Boutwell, Cancer Research, 1977, 37,2196-2201. That reference discloses that ornithine decarboxylase (ODC) activity increased precedent to polyamine biosynthesis. It has been established elsewhere that increases in polyamine synthesis can be correlated or associated with cellular proliferation. Thus, if ODC activity could be inhibited, cell hyperproliferation could be modulated. […] Activity of exemplary compounds of the present invention in the above- described ODC assay is disclosed in Table 2 which provides either IC80 (or other measured per cent inhibition at the indicated concentration) for the respective exemplary compound.

Row | SMILES | % of inhib ([2]; at conc 300 (nmol)) | further results
1 | CCCCCCCCCCCCCC(=O)O[C@@H]1[C@@H](C)[C@@]2(O)[C@@H](C=C(CO)C[C@]3(O)C(=O)C(C)=C[C@@H]23)[C@@H]2C(C)(C)[C@]12OC(C)=O [12-0-tetradecanoylphorbol-13-acetate] | – | effect on ODC activity [1]: induces ODC activity
2 | CCOC(=O)c1ccc(C#Cc2ccc(OC3CCCCO3)c(C34CC5CC(CC(C5)C3)C4)c2)cc1 (stereo not drawn) [Compound 9] | – | % of inhib ([2]; at conc 30 (nmol)): 49%
3 | O=C(O)c1ccc(C#Cc2ccc(OC3CCCCO3)cc2)nc1 (stereo not drawn) [Compound 15, 6-[2-[[1-(2-tetrahydropyranoxy)]-4-phenyl]ethyn-1-yl]nicotinic acid] | 44% | –
4 | CCOC(=O)c1ccc(C#Cc2cccc(OC3CCCCO3)c2)nc1 (stereo not drawn) [Compound 16, Ethyl 6-[2-[[1-(2-tetrahydropyranoxy)]-3-phenyl]ethyn-1-yl]nicotinate] | 52% | –
5 | CCOC(=O)c1ccc(C#Cc2ccc(C34CC5CC(CC(C5)C3)C4)c(OC3CCCCO3)c2)nc1 (stereo not drawn) [Compound 17] | 68% | –
6 | CCOC(=O)c1ccc(C#Cc2ccc(C34CC5CC(CC(C5)C3)C4)c(OC3CCCCO3)c2)cc1 (stereo not drawn) [Compound 18, Ethyl 4-[2-[[2-(1-adamantyl)-1-(2-tetrahydropyranoxy)]-5-phenyl]ethyn-1-yl]benzoate] | 45% | –
7 | O=C(O)c1ccc(C#Cc2ccc(C34CC5CC(CC(C5)C3)C4)c(OC3CCCCO3)c2)nc1 (stereo not drawn) [Compound 19] | 45% | –
8 | COC(=O)c1ccc(C#Cc2ccc(OC3CCCCO3)c(C34CC5CC(CC(C5)C3)C4)c2)cc1 (stereo not drawn) [Compound 25] | – | % of inhib ([2]; at conc 30 (nmol)): 61%
9 | CC1=C(/C=C/C(C)=C/C=C/C(C)=C/C(=O)O)C(C)(C)CCC1 [Retinoic acid] | – | effect on ODC activity [1]: inhibits this induction of ODC activity by TPA
